Earlier results in patent US9358223B2, “Formulation for preventing or reducing bleeding at a surgical site” (WARSAW ORTHOPEDIC, INC., priority 2009, dated 2016).

Test system: blood pressure
Details: perioperative period, patients undergoing rhytidectomy

Clc1cccc(Cl)c1N=C1NCCN1 [Clonidine, 2,6-dichloro-N-2-imidazolidinyldenebenzenamine]
regulation of blood pressure: effectively regulate blood pressure
